Measurements taken from PubChem BioAssay (NCI).
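Assay format: 96-well plates, 48-hour exposure. At the GI50, growth is halved. Definition used: TGI = concentration required for complete inhibition of growth.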

How the values were obtained:
Test in all cases: NCI tumour cell line growth inhibition, 48 h
KM20L2 colon = system: KM20L2 colon
DLD-1 colon = system: DLD-1 colon
LXFL 529 NSCLC = system: LXFL 529 NSCLC
M19-MEL melanoma = system: M19-MEL melanoma
XF 498 CNS = system: XF 498 CNS
DMS 273 small cell lung = system: DMS 273 small cell lung
DMS 114 small cell lung = system: DMS 114 small cell lung
RXF-631 renal = system: RXF-631 renal
MDA-N = system: MDA-N
SN12K1 renal = system: SN12K1 renal
P388 leukemia = system: P388 leukemia

SMILES | GI50 (KM20L2 colon) | TGI (KM20L2 colon) | GI50 (DLD-1 colon) | TGI (DLD-1 colon) | GI50 (LXFL 529 NSCLC) | TGI (LXFL 529 NSCLC) | GI50 (M19-MEL melanoma) | TGI (M19-MEL melanoma) | TGI (XF 498 CNS) | TGI (DMS 273 small cell lung) | TGI (DMS 114 small cell lung) | TGI (RXF-631 renal) | TGI (MDA-N) | TGI (SN12K1 renal) | TGI (P388 leukemia)
N[C@@H]1CCCC[C@H]1N.O=C([O-])C(=O)[O-].[Pt+4] | 263 nM | 24.2 µM | 3.46 µM | > 100 µM | 2360 nM | > 100 µM | 1180 nM | > 100 µM | – | – | – | – | – | – | –
N#CC(C(=O)CCC(=O)C(C#N)c1ccccc1)c1ccccc1 (stereo not given) | – | – | – | > 100 µM | – | > 100 µM | – | > 100 µM | > 100 µM | > 100 µM | > 100 µM | – | – | – | –
CCOC(=O)N1CCc2cc(OC)c(OC)c3c2c1cc1cc(OC)c(OC)cc13 | – | 7.16 µM | – | > 100 µM | – | > 100 µM | – | > 100 µM | 69 µM | > 45.2 µM | 7.1 µM | 66 µM | 0.599 µM | – | –
O=c1cc2ccccc2nn1Cc1cccc(Cl)c1 | – | > 100 µM | – | > 100 µM | – | – | – | > 100 µM | 94.5 µM | > 100 µM | > 100 µM | > 100 µM | – | – | –
CC1(c2cccc3ccccc23)OC(=O)c2ccccc21 (stereo not given) | – | 35.7 µM | – | 75.2 µM | – | > 100 µM | – | 51.3 µM | 45.2 µM | 28.6 µM | 38 µM | 70.7 µM | – | – | –
CCC1(c2c(F)c(F)c(N)c(F)c2F)CCC(=O)NC1=O (stereo not given) | – | – | – | > 100 µM | – | > 100 µM | – | > 100 µM | > 100 µM | > 100 µM | > 100 µM | – | – | – | –
CC(=O)[C@@]1(O)CC[C@H]2[C@@H]3C[C@H](C)C4=CC(=O)CC[C@]4(C)[C@H]3[C@@H](O)C[C@@]21C | – | – | – | – | – | – | – | – | – | – | – | – | > 100 µM | – | –
CCOc1ccccc1NC(=O)CC1SC(=Nc2ccc([N+](=O)[O-])cc2)NC1=O (stereo not given) | – | 42.2 µM | – | 59 µM | – | 39.9 µM | – | 64.4 µM | 32.4 µM | – | 32 µM | – | – | – | –
N/C(=C\c1ccc(OCc2ccccc2)c(OCc2ccccc2)c1[N+](=O)[O-])C(=O)O | – | > 100 µM | – | > 100 µM | – | > 100 µM | – | > 100 µM | – | > 100 µM | – | – | – | – | –
Nc1ncnc2c1nc(Cl)n2C1OC2COP(=O)(O)OC2C1O (stereo not given) | – | > 300 µM | – | > 194 µM | – | – | – | > 300 µM | – | > 222 µM | > 300 µM | – | > 300 µM | > 300 µM | > 300 µM
COC(=O)/C([Se]c1c(C)cc(C)cc1C)=C(\[Se]c1c(C)cc(C)cc1C)C(=O)OC | – | > 100 µM | – | > 100 µM | – | > 100 µM | – | > 100 µM | – | > 100 µM | > 100 µM | > 100 µM | – | – | –
Cc1cc2nc(CCC(=O)O)c(=O)[nH]c2cc1C | – | > 100 µM | – | > 100 µM | – | > 100 µM | – | > 100 µM | > 100 µM | – | > 100 µM | > 100 µM | – | – | –
COc1ccc2c(=O)c3ccoc3n(CC=C(C)C)c2c1 | – | – | – | – | – | – | – | – | – | – | – | – | > 100 µM | – | –
COc1c(OC)c(OC)c2c(c1OC)c(=O)c1ccccc1n2C | – | – | – | – | – | – | – | – | – | – | – | – | > 100 µM | – | –
N#C/C(=C/c1ccc[nH]1)P(=O)(O)O | – | > 100 µM | – | > 100 µM | – | > 100 µM | – | > 100 µM | > 100 µM | > 100 µM | > 100 µM | – | – | – | –
CCCCCCCCCCCCCC(=O)CC(=O)c1c(O)cccc1O | – | > 100 µM | – | > 100 µM | – | > 100 µM | – | > 100 µM | 51.2 µM | 41.1 µM | 47.1 µM | – | – | – | –
O=[N+]([O-])c1nccn1CC(O)CN1CC1 (stereo not given) | – | > 100 µM | – | > 100 µM | – | > 100 µM | – | > 100 µM | > 100 µM | > 100 µM | > 100 µM | > 100 µM | – | – | –
Oc1cc(O)c2c(-c3c(O)c(-c4ccc(O)c(O)c4)[o+]c4cc(O)cc(O)c34)c(O)c(-c3ccc(O)c(O)c3)[o+]c2c1 | – | > 100 µM | – | > 100 µM | – | > 100 µM | – | > 100 µM | 87.6 µM | > 100 µM | 92.8 µM | > 100 µM | – | – | –
